Common to all, as to format: biochemical
Assay [1] addresses T1, PI3Kδ (Homo sapiens, UniProt O00329).
T1 construct: purchased Millipore Ltd (Billerica, Mass.)
In words: In vitro determination of the PI3K enzyme inhibitory activity in the cell free assay (ADP-Glo Kinase Assay), PI3Kδ. Particulars: ATP 80 μM, read-out: PI3K delta inhibition. A digest of the protocol: (§1)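 Human recombinant PI3K isoforms with PI/PS lipid substrates (50 μM in 2× buffer, Tris pH 7.5, DTT) were run 60 min at room temperature. Final ATP was 50 μM for α, 100 μM for β, 30 μM for γ and 80 μM for δ. ADP formation was read by ADP-Glo luminescence, and IC50 came from a four-parameter logistic fit.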
Background: In ADP-Glo the light output rises with the ADP produced.

In assay [2] the target is T2, PI3Kα (Homo sapiens, UniProt P42336).
T2 construct: purchased Millipore Ltd (Billerica, Mass.)
Description: In vitro determination of the PI3K enzyme inhibitory activity in the cell free assay (ADP-Glo Kinase Assay), PI3Kα. Particulars: ATP 50 μM, read-out: PI3K alpha inhibition. A digest of the protocol: as §1

Assay [3] deals with T3, PI3Kγ (Homo sapiens, UniProt P48736).
T3 construct: purchased Millipore Ltd (Billerica, Mass.)
In words: In vitro determination of the PI3K enzyme inhibitory activity in the cell free assay (ADP-Glo Kinase Assay), PI3Kγ. To be noted: ATP 30 μM, read-out: PI3K gamma inhibition. The gist of the method:
as §1

Assay [4] deals with T4, PI3Kβ (Homo sapiens, UniProt P42338).
T4 construct: purchased Millipore Ltd (Billerica, Mass.)
Description: In vitro determination of the PI3K enzyme inhibitory activity in the cell free assay (ADP-Glo Kinase Assay), PI3Kβ. Particulars: ATP 100 μM, read-out: PI3K beta inhibition. A digest of the protocol:
as §1

Consider three compounds from US9527869B2, “Indolizine derivatives as phoshoinositide 3-kinases inhibitors” (CHIESI FARMACEUTICI S.P.A., priority 2014, dated 2016).

T3 sequence (P48736 whole entry): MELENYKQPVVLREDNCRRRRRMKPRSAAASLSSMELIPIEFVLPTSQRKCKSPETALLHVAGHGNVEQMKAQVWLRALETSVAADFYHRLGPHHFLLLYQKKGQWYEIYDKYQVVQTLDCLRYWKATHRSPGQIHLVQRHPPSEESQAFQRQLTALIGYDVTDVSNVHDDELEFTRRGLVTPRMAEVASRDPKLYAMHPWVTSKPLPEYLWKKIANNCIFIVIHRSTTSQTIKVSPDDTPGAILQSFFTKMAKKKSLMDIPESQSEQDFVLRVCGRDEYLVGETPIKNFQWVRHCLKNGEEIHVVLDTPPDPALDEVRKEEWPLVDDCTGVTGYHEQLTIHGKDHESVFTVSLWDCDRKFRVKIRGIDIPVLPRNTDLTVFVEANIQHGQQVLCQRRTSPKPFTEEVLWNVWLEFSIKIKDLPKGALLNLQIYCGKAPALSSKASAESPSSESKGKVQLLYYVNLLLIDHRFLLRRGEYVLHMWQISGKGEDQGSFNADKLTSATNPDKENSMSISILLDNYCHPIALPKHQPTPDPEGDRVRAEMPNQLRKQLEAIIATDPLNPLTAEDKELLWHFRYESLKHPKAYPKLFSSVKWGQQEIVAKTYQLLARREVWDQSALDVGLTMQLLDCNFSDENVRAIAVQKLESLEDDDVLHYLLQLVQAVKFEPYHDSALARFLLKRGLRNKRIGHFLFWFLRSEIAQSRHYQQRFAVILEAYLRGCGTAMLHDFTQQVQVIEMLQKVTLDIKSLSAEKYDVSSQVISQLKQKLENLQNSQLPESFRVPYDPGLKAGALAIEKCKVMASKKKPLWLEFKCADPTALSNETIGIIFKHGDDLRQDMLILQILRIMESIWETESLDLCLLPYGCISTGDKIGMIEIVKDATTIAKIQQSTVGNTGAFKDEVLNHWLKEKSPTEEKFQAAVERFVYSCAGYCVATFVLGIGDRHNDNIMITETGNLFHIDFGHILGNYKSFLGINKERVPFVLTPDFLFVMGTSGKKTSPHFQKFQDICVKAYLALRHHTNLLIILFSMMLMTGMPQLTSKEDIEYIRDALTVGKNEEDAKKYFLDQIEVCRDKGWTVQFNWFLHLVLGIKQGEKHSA
T4 sequence (P42338 whole entry): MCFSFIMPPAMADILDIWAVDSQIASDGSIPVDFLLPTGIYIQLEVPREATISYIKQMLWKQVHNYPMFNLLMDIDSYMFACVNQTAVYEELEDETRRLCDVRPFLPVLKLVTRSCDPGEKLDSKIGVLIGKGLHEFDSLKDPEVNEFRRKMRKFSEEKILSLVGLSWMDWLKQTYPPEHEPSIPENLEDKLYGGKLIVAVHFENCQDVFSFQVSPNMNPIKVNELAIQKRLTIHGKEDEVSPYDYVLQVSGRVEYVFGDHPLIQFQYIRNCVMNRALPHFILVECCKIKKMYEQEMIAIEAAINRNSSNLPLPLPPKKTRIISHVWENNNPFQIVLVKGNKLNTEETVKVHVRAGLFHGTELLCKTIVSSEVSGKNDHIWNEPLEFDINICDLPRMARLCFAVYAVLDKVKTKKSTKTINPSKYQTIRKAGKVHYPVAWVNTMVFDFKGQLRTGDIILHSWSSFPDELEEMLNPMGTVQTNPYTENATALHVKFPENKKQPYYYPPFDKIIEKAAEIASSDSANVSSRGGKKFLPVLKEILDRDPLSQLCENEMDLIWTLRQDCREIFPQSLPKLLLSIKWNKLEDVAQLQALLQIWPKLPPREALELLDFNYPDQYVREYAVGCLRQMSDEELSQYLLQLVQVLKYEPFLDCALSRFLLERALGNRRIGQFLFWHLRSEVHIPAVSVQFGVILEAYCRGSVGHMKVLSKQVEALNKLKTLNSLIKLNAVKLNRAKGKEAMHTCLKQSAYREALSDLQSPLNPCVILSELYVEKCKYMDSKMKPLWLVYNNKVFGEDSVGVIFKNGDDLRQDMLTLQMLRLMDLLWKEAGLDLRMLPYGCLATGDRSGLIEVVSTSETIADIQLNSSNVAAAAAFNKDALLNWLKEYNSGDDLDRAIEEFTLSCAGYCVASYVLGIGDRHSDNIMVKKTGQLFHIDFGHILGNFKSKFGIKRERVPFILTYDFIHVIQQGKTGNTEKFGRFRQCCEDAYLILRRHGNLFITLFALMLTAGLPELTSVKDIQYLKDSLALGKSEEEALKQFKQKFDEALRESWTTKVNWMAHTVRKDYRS
T4 sequence (P27986 whole entry partner): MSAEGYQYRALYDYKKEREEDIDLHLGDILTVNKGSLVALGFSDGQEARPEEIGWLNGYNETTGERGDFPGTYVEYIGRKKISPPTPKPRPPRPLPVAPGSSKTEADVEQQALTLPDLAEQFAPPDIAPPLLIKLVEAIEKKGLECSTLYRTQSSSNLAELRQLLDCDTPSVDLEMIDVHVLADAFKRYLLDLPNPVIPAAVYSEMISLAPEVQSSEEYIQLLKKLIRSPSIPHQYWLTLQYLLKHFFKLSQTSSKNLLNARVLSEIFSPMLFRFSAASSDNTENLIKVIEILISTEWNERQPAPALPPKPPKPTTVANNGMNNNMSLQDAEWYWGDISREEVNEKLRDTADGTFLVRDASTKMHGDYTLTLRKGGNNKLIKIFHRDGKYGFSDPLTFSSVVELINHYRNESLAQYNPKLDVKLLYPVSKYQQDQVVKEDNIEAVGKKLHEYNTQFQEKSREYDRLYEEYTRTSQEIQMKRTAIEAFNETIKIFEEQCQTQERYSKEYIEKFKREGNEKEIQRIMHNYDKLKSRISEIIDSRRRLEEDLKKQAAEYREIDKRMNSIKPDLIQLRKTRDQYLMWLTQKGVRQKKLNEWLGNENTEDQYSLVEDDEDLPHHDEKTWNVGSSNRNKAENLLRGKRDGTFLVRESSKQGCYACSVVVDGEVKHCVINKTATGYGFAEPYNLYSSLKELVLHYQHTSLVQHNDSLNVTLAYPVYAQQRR
T1 sequence (O00329 whole entry): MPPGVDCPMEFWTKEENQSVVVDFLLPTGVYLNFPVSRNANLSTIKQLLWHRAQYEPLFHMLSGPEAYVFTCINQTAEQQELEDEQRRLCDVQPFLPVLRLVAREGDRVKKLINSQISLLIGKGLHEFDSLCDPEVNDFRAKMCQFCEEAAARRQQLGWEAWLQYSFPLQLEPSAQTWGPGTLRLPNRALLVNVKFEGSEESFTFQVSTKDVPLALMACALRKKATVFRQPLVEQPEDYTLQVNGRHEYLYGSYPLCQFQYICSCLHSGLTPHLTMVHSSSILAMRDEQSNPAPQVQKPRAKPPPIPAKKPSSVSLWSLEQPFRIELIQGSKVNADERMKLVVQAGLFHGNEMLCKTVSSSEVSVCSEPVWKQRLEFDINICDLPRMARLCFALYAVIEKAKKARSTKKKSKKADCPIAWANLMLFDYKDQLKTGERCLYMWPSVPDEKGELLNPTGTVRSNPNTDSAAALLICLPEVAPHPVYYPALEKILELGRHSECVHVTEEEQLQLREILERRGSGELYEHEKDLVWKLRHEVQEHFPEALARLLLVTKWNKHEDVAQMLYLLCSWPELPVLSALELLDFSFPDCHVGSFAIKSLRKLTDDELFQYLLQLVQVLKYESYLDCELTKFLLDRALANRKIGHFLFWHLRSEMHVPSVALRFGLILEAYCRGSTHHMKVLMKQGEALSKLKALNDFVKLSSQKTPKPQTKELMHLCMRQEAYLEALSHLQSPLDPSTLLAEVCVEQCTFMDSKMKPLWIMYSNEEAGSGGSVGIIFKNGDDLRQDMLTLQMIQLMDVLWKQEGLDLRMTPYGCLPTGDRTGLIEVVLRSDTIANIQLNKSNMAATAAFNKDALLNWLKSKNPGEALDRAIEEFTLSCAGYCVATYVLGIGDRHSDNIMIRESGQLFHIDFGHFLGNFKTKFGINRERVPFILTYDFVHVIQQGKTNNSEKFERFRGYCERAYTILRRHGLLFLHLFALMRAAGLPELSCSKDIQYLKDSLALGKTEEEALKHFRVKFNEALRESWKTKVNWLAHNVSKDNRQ
T1 sequence (P27986 whole entry partner): as the sequence (P27986 whole entry partner) above
T2 sequence (P42336 whole entry): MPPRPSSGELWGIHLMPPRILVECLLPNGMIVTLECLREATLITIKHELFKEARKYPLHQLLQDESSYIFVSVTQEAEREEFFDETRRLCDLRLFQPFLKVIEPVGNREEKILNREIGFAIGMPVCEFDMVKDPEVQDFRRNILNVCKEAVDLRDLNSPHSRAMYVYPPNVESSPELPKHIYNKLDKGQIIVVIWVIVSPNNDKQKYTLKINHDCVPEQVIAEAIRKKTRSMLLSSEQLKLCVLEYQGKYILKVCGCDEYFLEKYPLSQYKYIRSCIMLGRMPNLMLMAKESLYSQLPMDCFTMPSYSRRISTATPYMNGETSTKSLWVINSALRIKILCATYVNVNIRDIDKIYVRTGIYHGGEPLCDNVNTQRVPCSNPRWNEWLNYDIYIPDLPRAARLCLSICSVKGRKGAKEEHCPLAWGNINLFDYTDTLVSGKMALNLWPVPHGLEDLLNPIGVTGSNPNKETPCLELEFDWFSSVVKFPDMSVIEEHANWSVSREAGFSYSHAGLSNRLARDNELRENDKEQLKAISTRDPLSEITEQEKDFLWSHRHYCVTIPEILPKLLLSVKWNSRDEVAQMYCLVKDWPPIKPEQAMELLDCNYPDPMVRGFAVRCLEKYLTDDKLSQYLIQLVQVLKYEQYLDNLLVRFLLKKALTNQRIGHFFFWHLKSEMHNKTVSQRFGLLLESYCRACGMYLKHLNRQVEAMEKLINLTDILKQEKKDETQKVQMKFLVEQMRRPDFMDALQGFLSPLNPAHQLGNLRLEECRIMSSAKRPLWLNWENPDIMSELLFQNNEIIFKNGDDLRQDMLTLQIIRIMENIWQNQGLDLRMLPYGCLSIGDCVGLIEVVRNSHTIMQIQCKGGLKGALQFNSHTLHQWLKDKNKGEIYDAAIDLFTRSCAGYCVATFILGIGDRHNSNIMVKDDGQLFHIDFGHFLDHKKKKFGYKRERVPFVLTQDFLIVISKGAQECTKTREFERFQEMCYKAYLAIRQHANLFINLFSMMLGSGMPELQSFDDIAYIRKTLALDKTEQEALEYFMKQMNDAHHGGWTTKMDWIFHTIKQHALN
T2 sequence (P27986 whole entry partner): as the sequence (P27986 whole entry partner) above

For the compound `CC(c1cc2ccccn2c1-c1ccn(CCN2CCN(C)CC2)n1)n1nc(-c2cc(O)cc(F)c2)c2c(N)ncnc21` (stereo not drawn) [Example 148, 3-{4-amino-1-[1-(3-{1-[2-(4-methylpiperazin-1-yl)ethyl]-1H-pyrazol-3-yl}indolizin-2-yl)-ethyl]-1H-pyrazolo[3,4-d]pyrimidin-3-yl}-5-fluorophenol], the IC50 in assay [1] is below 10 nM; in assay [2], 10 to 1000 nM; in assay [3] it was 10 to 1000 nM; in assay [4], 10 to 1000 nM.

On to `CC(c1cc2ccccn2c1-c1ccn(CCN(CCO)CCO)n1)n1nc(-c2cc(O)cc(F)c2)c2c(N)ncnc21` (stereo not drawn) [Example 149, 3-(4-amino-1-{1-[3-(1-{2-[bis(2-hydroxyethyl)amino]ethyl}-1H-pyrazol-3-yl)indolizin-2-yl]ethyl}-1H-pyrazolo[3,4-d]pyrimidin-3-yl)-5-fluorophenol], for which the IC50 in assay [1] is below 10 nM; in assay [2], above 1000 nM; in assay [3] it was 10 to 1000 nM; in assay [4], 10 to 1000 nM.

In the case of `CC(c1cc2ccccn2c1-c1ccn(CCN2CCOCC2)n1)n1nc(-c2cc(O)cc(F)c2)c2c(N)ncnc21` (stereo not drawn) [Example 150, 3-{4-amino-1-[1-(3-{1-[2-(morpholin-4-yl)ethyl]-1H-pyrazol-3-yl}indolizin-2-yl)ethyl]-1H-pyrazolo-[3,4-d]pyrimidin-3-yl}-5-fluorophenol], the IC50 in assay [1] was below 10 nM; in assay [2], above 1000 nM; in assay [3], 10 to 1000 nM; in assay [4] it was 10 to 1000 nM.
